Where two headings read alike, the source gives them in different places. *1 amine or outer side, *2 acyl side, *3 side chain or, on linkers, in order; H or OH if unused. Where a SMILES comes first, the peptide text is derived from it. Bridges are numbered along the chain shown (N, C = ends). Roman numbers before positions name the chains, in order. [ ]: non-standard residue; d: D form. Actinocin(9to1) = Cc1c2oc3c(C)ccc(C(=O)[*:1])c3nc-2c(C(=O)[*:2])c(N)c1=O; NMeV = CN[C@H](C(=O)O)C(C)C; Sar = CNCC(=O)O
Legend:
[1] = molecular target: T1, FGF14:Nav1.6 C-tail complex (Homo sapiens, UniProt Q92915+Q9UQD0); experiment: Split-luciferase complementation assay (LCA) in Clone V double stable HEK293 cells; type: cell-based; conditions: for Split Luciferase Assay %Lum Set 2 / Split Luciferase Assay Z-score Set 2: biological replicate Set 2; for Split Luciferase Assay %Lum Set 2 / Split Luciferase Assay % Lum Set 1: normalized to on-plate 0.3% DMSO controls (n=16 per plate); for Split Luciferase Assay Z-score Set 2 / Split Luciferase Assay Z-score Set 1: normalized to on-plate 0.3% DMSO controls; for Split Luciferase Assay %Lum Avg: average of Set 1 and Set 2, normalized to 0.3% DMSO controls; for Split Luciferase Assay % Lum Set 1 / Split Luciferase Assay Z-score Set 1: biological replicate Set 1; for signal-background (S:B) ratio: 50 ng/mL TNF-α vs 0.3% DMSO, n = 16
T1 construct: polymerase chain reaction (PCR) amplification of the FGF14 open reading frame (nt 1–855); C-terminal fragment of Nav1.6 (amino acids 1763–1976) fused with CD4ΔC-tail (amino acids 1–395); expressed in transfected cells
T1 sequence (Q92915 1-252 isoform Q92915-2): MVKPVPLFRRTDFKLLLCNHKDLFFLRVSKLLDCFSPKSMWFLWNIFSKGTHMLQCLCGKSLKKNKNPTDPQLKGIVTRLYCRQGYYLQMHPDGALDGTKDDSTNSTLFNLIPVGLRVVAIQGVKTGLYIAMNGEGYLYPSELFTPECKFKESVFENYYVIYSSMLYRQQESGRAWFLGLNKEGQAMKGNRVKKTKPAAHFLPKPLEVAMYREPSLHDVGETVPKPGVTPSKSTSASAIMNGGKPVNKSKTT
T1 sequence (Q9UQD0 1763-1976 limits assumed): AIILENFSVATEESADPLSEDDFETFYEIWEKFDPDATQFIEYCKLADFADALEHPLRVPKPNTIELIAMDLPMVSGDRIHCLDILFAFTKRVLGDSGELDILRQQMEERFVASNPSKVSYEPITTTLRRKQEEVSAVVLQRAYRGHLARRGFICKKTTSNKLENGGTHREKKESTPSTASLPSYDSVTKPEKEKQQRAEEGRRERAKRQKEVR

[2] = molecular target: full-length P. pyralis luciferase (Photinus pyralis, UniProt P08659, K549A/L550V/N119G/N50D/S548I); type: cell-based
full-length P. pyralis luciferase, sequence (P08659 whole entry N50D/N119G/S548I/K549A/L550V, looked up): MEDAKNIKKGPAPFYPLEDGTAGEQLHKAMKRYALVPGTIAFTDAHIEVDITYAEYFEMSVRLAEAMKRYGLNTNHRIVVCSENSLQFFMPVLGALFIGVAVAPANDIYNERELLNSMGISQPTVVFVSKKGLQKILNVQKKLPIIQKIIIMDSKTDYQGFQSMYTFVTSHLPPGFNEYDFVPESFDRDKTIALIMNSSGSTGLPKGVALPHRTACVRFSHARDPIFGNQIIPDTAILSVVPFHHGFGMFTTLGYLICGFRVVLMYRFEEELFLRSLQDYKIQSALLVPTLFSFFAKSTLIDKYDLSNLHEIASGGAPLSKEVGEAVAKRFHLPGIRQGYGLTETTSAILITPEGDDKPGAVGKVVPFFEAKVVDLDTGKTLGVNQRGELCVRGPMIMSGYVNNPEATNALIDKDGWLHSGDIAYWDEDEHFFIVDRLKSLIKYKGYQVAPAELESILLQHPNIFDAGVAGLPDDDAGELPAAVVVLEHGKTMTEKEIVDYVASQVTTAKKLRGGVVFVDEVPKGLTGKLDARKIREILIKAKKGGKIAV

[3] = CC_NCI screening, LCA luminescence
[4] = CC_NCI screening, full-length luciferase counter-screen luminescence, normalized to on-plate 0.3% DMSO controls
[5] = CC_NCI screening, full-length luciferase counter-screen, normalized to on-plate 0.3% DMSO controls
[6] = CC_NCI screening, normalized to on-plate 0.3% DMSO controls

Row | Compound | Split Luciferase Assay %Lum Set 2 [1, 3] [%] | Split Luciferase Assay Z-score Set 2 ([1]; CC_NCI screening, LCA) | Split Luciferase Assay %Lum Avg ([1]; CC_NCI screening) [%] | Luciferase Assay % Lum [2, 4] [%] | Luciferase Assay Z-score [2, 5] | Split Luciferase Assay % Lum Set 1 [1, 3] [%] | Split Luciferase Assay Z-score Set 1 ([1]; CC_NCI screening, LCA) | Split Luciferase Assay Z-score Set 1 ([1]; CC_NCI screening) | Split Luciferase Assay % Lum Set 1 ([1]; CC_NCI screening) [%] | Split Luciferase Assay Z-score Set 2 ([1]; CC_NCI screening) | Split Luciferase Assay %Lum Set 2 ([1]; CC_NCI screening) [%] | Split Luciferase Assay %Lum Avg [1] [%] | Luciferase Assay % Lum (full-length luciferase counter-screen) [2, 6] [%] | Luciferase Assay Z-score (full-length luciferase counter-screen) [2, 6] | Toxicity Assay Z-score (CTB cell viability) (Clone V cells) | other results
1 | Cc1c2oc3c(C)ccc(C(=O)N[C@@H]4C(=O)N[C@H](C(C)C)C(=O)N5CCC[C@H]5C(=O)N(C)CC(=O)N(C)[C@@H](C(C)C)C(=O)O[C@@H]4C)c3nc-2c(C(=O)N[C@@H]2C(=O)N[C@H](C(C)C)C(=O)N3CCC[C@H]3C(=O)N(C)CC(=O)N(C)[C@@H](C(C)C)C(=O)O[C@@H]2C)c(N)c1=O [Dactinomycin] (I: T[dV]P[Sar][NMeV] / II: T[dV]P[Sar][NMeV]; ester I:1-I:C, II:1-II:C; linker I:N-II:N via Actinocin(9to1)) | 65.54 | -2.80 | 62.83 | 95.88 | -0.53 | – | – | – | – | – | – | – | – | – | – | Toxicity Assay % Fluor (Clone V cells; human): 93.25%; Toxicity Assay Z-score (Clone V cells; human): -0.94
2 | CC(C)(C)c1nc(-c2cccc(NS(=O)(=O)c3c(F)cccc3F)c2F)c(-c2ccnc(N)n2)s1.CS(=O)(=O)O [Dabrafenib mesylate] | 121.72 | 1.77 | 124.07 | 100.50 | 0.06 | 126.43 | 2.14 | – | – | – | – | – | – | – | – | Toxicity Assay % Fluor (Clone V cells): 93.50%; Toxicity Assay Z-score (Clone V cells): -0.91
3 | NC(=O)c1ccc2[nH]ccc2c1 [SD 169] | – | – | – | – | – | – | – | 2.14 | 126.43 | 1.34 | 116.51 | 121.47 | 109.31 | 1.19 | 0.56 | Toxicity Assay % Fluor (CTB cell viability fluorescence) (Clone V cells): 104.03%
4 | Nc1nc(Cl)nc2c1ncn2[C@@H]1O[C@H](CO)[C@@H](O)[C@@H]1F [Clofarabine] | 131.08 | 2.53 | 138.54 | – | – | 146.00 | 3.72 | – | – | – | – | – | – | – | – | Luciferase Assay % Lum [2]: 100.89%; Luciferase Assay Z-score [2]: 0.11; Toxicity Assay % Fluor (Clone V cells; human, 16 h, 30 µM): 94.15%; Toxicity Assay Z-score (Clone V cells; human, 16 h, 30 µM): -0.82
5 | O=C(O)C(=O)O.[NH-][C@@H]1CCCC[C@H]1[NH-].[Pt+2] [Oxaliplatin] | 119.64 | 1.60 | 117.60 | 102.65 | 0.34 | 115.56 | 1.26 | – | – | – | – | – | – | – | – | Toxicity Assay % Fluor (Clone V cells): 90.53%; Toxicity Assay Z-score (Clone V cells): -1.32
6 | COc1cc(N2CCC(N3CCN(C)CC3)CC2)ccc1Nc1ncc(Cl)c(Nc2ccccc2S(=O)(=O)C(C)C)n1 [NVP TAE684] | – | – | – | – | – | – | – | -7.35 | 9.02 | -7.71 | 5.20 | 7.11 | 96.39 | -0.46 | -8.69 | Toxicity Assay % Fluor (CTB cell viability fluorescence) (Clone V cells): 37.86%
7 | NC(=O)c1ccc(I)c([N+](=O)[O-])c1 [BSI-201] | 112.35 | 1.01 | 107.43 | 101.73 | 0.22 | 102.51 | 0.20 | – | – | – | – | – | – | – | – | Toxicity Assay % Fluor (Clone V cells; human, 16 h, 30 µM): 93.94%; Toxicity Assay Z-score (Clone V cells; human, 16 h, 30 µM): -0.85
8 | Cc1nc2c(c(=O)[nH]1)CSCC2 [DR 2313] | – | – | – | – | – | – | – | -1.11 | 86.21 | -0.26 | 96.75 | 91.48 | 93.50 | -0.83 | 0.88 | Toxicity Assay % Fluor (CTB cell viability fluorescence) (Clone V cells): 106.28%
9 | TNF-α | – | – | – | – | – | – | – | – | – | – | – | – | – | – | – | mean effect relative to that of triciribine [1]: over 2 fold; signal-background (S:B) ratio ([1]; 1 × 10^4 cells per 384-well): 2.05 ± 0.11 X background signal; signal-background (S:B) ratio ([1]; 2 × 10^4 cells per 384-well): 2.26 ± 0.18 X background signal; signal-background (S:B) ratio ([1]; 3 × 10^4 cells per 384-well): 2.60 ± 0.14 X background signal; signal-background (S:B) ratio ([1]; 4 × 10^4 cells per 384-well): 2.12 ± 0.16 X background signal; % luminescence (mean and SD, normalized to DMSO) ([1]; 50 ng/mL TNF-α, Clone V cells, 96-well plates): 210.8% ± 18.6%; % maximal luminescence, full-length luciferase (normalized mean and SD) ([2]; TNF-α 50 ng/mL, 96-well plates): 105.7% ± 2.5%; cell viability vs untreated cells (CTB fluorescence) (Clone V cells): no significant difference in cell viability
10 | CN(C)Cc1c(C(=O)NCCOc2ccc(C(=O)NO)cc2)oc2ccccc12 [PCI-24781] | 98.83 | -0.10 | 108.83 | 91.15 | -1.13 | 118.82 | 1.52 | – | – | – | – | – | – | – | – | Toxicity Assay % Fluor (Clone V cells; human, 16 h, 30 µM): 93.46%; Toxicity Assay Z-score (Clone V cells; human, 16 h, 30 µM): -0.91
11 | COc1ccc(OC)c2c(=S)c3ccccc3[nH]c12 [NSC 625987] | – | – | – | – | – | – | – | -1.20 | 85.12 | -1.20 | 85.31 | 85.21 | 78.37 | -2.77 | 1.28 | Toxicity Assay % Fluor (CTB cell viability fluorescence) (Clone V cells): 109.17%
12 | NC1(c2ccc(-c3nc4ccn5c(=O)[nH]nc5c4cc3-c3ccccc3)cc2)CCC1 [MK-2206] | 47.85 | -4.24 | 48.01 | 85.95 | -1.80 | 48.16 | -4.19 | – | – | – | – | – | – | – | – | Toxicity Assay % Fluor (Clone V cells; human, 16 h, 30 µM): 95.56%; Toxicity Assay Z-score (Clone V cells; human, 16 h, 30 µM): -0.62
13 | c1cc(CN2CCCNCCNCCCNCC2)ccc1CN1CCCNCCNCCCNCC1 [Plerixafor] | 111.31 | 0.92 | 111.81 | – | – | 112.30 | 0.99 | – | – | – | – | – | – | – | – | Luciferase Assay % Lum [2]: 97.43%; Luciferase Assay Z-score [2]: -0.33; Toxicity Assay % Fluor (Clone V cells; human, 16 h, 30 µM): 92.88%; Toxicity Assay Z-score (Clone V cells; human, 16 h, 30 µM): -1.00
14 | O=C1NC(=O)/C(=C/c2ccc3c(c2)OC(F)(F)O3)S1 [AS-604850] | – | – | – | – | – | – | – | -2.78 | 65.55 | -1.96 | 75.94 | 70.75 | 62.77 | -4.77 | 2.25 | –
15 | Cc1cc(Nc2ncc3cc(-c4c(Cl)cccc4Cl)c(=O)n(C)c3n2)ccc1F [PD 180970] | 116.51 | 1.34 | 118.75 | 100.96 | 0.12 | 120.99 | 1.70 | – | – | – | – | – | – | – | – | Toxicity Assay % Fluor (Clone V cells): 102.30%; Toxicity Assay Z-score (Clone V cells): 0.32
16 | N.N.O=C([O-])C1(C(=O)[O-])CCC1.[Pt+2] [Carboplatin] | – | – | – | – | – | – | – | 0.82 | 110.12 | 1.17 | 114.43 | 112.28 | 96.43 | -0.46 | 1.29 | Toxicity Assay % Fluor (CTB cell viability fluorescence) (Clone V cells): 109.23%
17 | Cc1cccc(Nc2nc(-c3ccncc3)cs2)c1 [STF-62247] | 33.29 | -5.43 | 28.22 | 83.43 | -2.12 | 23.16 | -6.21 | – | – | – | – | – | – | – | – | Toxicity Assay % Fluor (Clone V cells): 98.46%; Toxicity Assay Z-score (Clone V cells): -0.22

Source: PMC6858373 (Scientific Reports, 2019)
